Seven compounds from US12351565B2, “Aromatic compound and preparation method therefor and use thereof” (SHANGHAI JIANHE PHARMACEUTICAL & TECHNOLOGY CO. LTD., priority 2018, dated 2025) can be followed below.

Test [1] concerns C57 mice. The test is described as follows: Forced swimming experiment, intraperitoneal administration to mice. It is filed as in vivo. The note with it: for inhibition in vivo at 10 mg/kg: Mus musculus, ip. Here is the method: The forced-swimming test is currently the most widely used classic method to evaluate the antidepressant effects of compounds in rodents. […] The time in immobile state of experimental animal is observed and recorded, which can be used to evaluate the effect of antidepressant compounds.
1 h and 24 h after a single intraperitoneal administration of 10 mg/kg, forced swimming tests were respectively carried out to investigate the effects of different compounds on depression-like behaviors of C57 mice.
(§1) Experimental animals were 6-week aged C57 mice, male, and C57 mice were purchased from Shanghai SLAC Laboratory Animal Co., Ltd., with a body weight of 20.45±0.19 g. Before the experiment, they arrived at the Animal Feeding Center of Shanghai Institute of Materia Medica, Chinese Academy of Sciences (Animal Production License: SCXK9[Shanghai]2004-0002, usage license: SYXK[Shanghai]2003-0029), and adapted for 3 days or more in animal facilities. They were bred at 6 animals/cage. The breeding environment was room temperature 23±0.2° C., with 12/12 hours alternation of day and night. Before the behavioral test, the animals should be moved to the behavioral test operation room 2 hours in advance to adapt to the environment and reduce their tension.
Preparation of the test product: each test compound was accurately weighed and dissolved in 0.9% NaCl solution, mixed thoroughly, and prepared as a 1 mg/ml solution, set aside.
(§2) 24 hours before the administration, the mice were placed in a cylindrical tank to adapt to the aquatic environment for 10 min. On the day of the behavioral test, the animals were respectively administered intraperitoneally once at 1 h and 24 h before the behavioral test. The mice were placed individually into a cylindrical glass tank with a height of 30 cm and a diameter of 20 cm. The water depth in the tank was 15 cm, so that the animals could not escape from the glass tank and their feet and tails could not touch the bottom of the tank, the water temperature was 23° C.-25° C. A 6 minute video was taken after the mouse entered into water. Since most animals were very active in the first two minutes, the immobility time in the following 4 minute were calculated (criterion of immobility: the mouse stops struggling in the water, stays still and has small limbs movement to maintain balance or to keep a floating state).
The antidepressant effect of a compound was evaluated by the ability of the compound to reduce the immobility time of the animal in the forced swimming test as compared with the blank group. The shorter the immobility time of the animal to be tested, the higher the inhibition rate and the stronger the antidepressant activity. Inhibition rate1 h(%)=immobility time(blank, 1 h)−immobility time(administration, 1 h)/immobility time(blank, 1 h)×100% Inhibition rate24 h(%)=immobility time(blank, 24 h)−immobility time(administration, 24 h)/immobility time(blank, 24 h)×100%

Test [2] concerns C57 mice. The test is described as follows: Forced swimming experiment, oral administration to mice. The test is classed as in vivo. The note with it: for 1 h inhibition rate / 24 h inhibition rate: inhibition of immobility time, C57 mice; for 1 h inhibition rate: forced swimming 1 h after single oral (intragastric) 20 mg/kg; for 24 h inhibition rate: forced swimming 24 h after single oral (intragastric) 20 mg/kg. On the procedure: 1 h and 24 h after a single oral administration of 20 mg/kg, forced swimming experiments were then carried out to investigate the effects of different compounds on depression-like behavior in C57 mice.
as §1, with “male,” for “male, and”
Preparation of the test product: each test compound was accurately weighed and dissolved in 0.9% NaCl solution, mixed thoroughly, and prepared into 1 mg/ml and 2 mg/ml solutions respectively, and set aside.
as §2, with “intragastrically” for “intraperitoneally”
The antidepressant effect of a compound was evaluated by the ability of the compound to reduce the immobility time of the animal in the forced swimming test as compared with the blank group. Inhibition rate1 h(%)=immobility time(blank, 1 h)−immobility time(administration, 1 h)/immobility time(blank, 1 h)×100% Inhibition rate24h(%)=immobility time(blank, 24 h)−immobility time(administration, 24 h)/immobility time(blank, 24 h)×100%

[3] abbreviates: 1 h, read-out: 1 h inhibition rate.
The mark [4] stands for this setting: 24 h, read-out: 24 h inhibition rate.

Structures are written as SMILES. Where a name gives a salt, the structure may show the parent alone. Read-outs that look alike come from different tables or passages of the source.

On to `Cl.NC1(c2cc(F)ccc2F)CCCC(O)C1=O` (stereo not shown) [Comparative compound 1, reference compound], for which the values for the inhibition in vivo at 10 mg/kg in the test with C57 mice [1] (setting [3]) and in the test with C57 mice [1] (setting [4]) were 17.4% and 10.6%, respectively. Further, the “1 h inhibition rate” value in the test with C57 mice [1] (inhibition of immobility time, forced swimming 1 h after single intraperitoneal 10 mg/kg, C57 mice) amounted to 17.4 ± 0.2%. In addition, in the test with C57 mice [1] (inhibition of immobility time, forced swimming 24 h after single intraperitoneal 10 mg/kg, C57 mice), the “24 h inhibition rate” value was found to be 10.6 ± 1.2%.

On to `CNC1(c2cccc(OC(F)(F)F)c2)CCCC(O)C1=O` (stereo not shown) [Compound 39, 6-hydroxy-2-methylamino-2-(3-trifluoromethoxyphenyl)cyclohexane-1-one hydrochloride], for which the inhibition in vivo at 10 mg/kg in the test with C57 mice [1] (setting [3]) stood at 46.6 ± 1%; with C57 mice [1] (setting [4]) it was 49.1 ± 3.7%.

Regarding `N#Cc1cccc(C2(N)CCCC(O)C2=O)c1` (stereo not shown) [Compound 53, 3-(1-amino-3-hydroxy-2-oxocyclohexane)benzonitrile trifluoroacetate], the inhibition in vivo at 10 mg/kg turned out to be 50.9 ± 2% in the test with C57 mice [1] (setting [3]) and 39.6 ± 3.2% with C57 mice [1] (setting [4]).

Consider `Cl.NC1(c2cccc(OC(F)(F)F)c2F)CCCC(O)C1=O` (stereo not shown) [Compound 59, 2-amino-2-(2-fluoro-3-(trifluoromethoxy)phenyl)-6-hydroxycyclohexane-1-one hydrochloride], for which the inhibition in vivo at 10 mg/kg in the test on C57 mice [1] (setting [3]) amounted to 32 ± 2.2%. Besides, in the test with C57 mice [1] (setting [4]), the inhibition in vivo at 10 mg/kg was found to be 40.3 ± 4.9%. Also, in the test with C57 mice [2], the “1 h inhibition rate” value is reported as 28.6 ± 1.8% and the “24 h inhibition rate” value is recorded as 36.1 ± 1.6%.

`Cl.N[C@]1(c2cccc(OC(F)(F)F)c2F)CCC[C@H](O)C1=O` [Compound 65, (2S,6S)-2-amino-2-(2-fluoro-3-(trifluoromethoxy)phenyl)-6-hydroxycyclohexane-1-one hydrochloride]: in the test with C57 mice [2], the “1 h inhibition rate” value amounted to 23.8 ± 0.6% and the “24 h inhibition rate” value was 32.0 ± 2.9%.

Turning to `NC1(c2c(F)ccc(F)c2F)CCCC(O)C1=O` (stereo not shown) [Compound 71, 2-amino-6-hydroxy-2-(2,3,6-trifluorophenyl)cyclohexane-1-one hydrochloride], the inhibition in vivo at 10 mg/kg in the test on C57 mice [1] (setting [3]) was determined as 24.2 ± 4.7%; with C57 mice [1] (setting [4]), 57.4 ± 4.4%.

With `CNCCC(Oc1ccc(C(F)(F)F)cc1)c1ccccc1` (stereo not shown) [Fluoxetine, fluoxetine, reference compound], the “antidepressant effect in the forced swimming experiment” value with C57 mice [1] (1 hour and 24 hours, intraperitoneal 10 mg/kg, in words) was “no obvious antidepressant effect”; with C57 mice [2] (1 hour and 24 hours, oral administration, in words) it was “no antidepressant effect was shown”. The inhibition in vivo at 10 mg/kg in the test on C57 mice [1] (inhibition of immobility time, forced swimming 1 h after single intraperitoneal 10 mg/kg, C57 mice, read-out: 1 h inhibition rate) is -4.6 ± 2.3%; with C57 mice [1] (inhibition of immobility time, forced swimming 24 h after single intraperitoneal 10 mg/kg, C57 mice, read-out: 24 h inhibition rate), 4.6 ± 1.8%. For the same compound, the “1 h inhibition rate” value with C57 mice [2] was 2.2 ± 1.2%. The “24 h inhibition rate” value with C57 mice [2] came to 1.8 ± 1.3%.
